The source of these data is patent publication US11667651B2, “Aminopyridine derivatives as phosphatidylinositol phosphate kinase inhibitors” (HiberCell, Inc., priority 2017, dated 2023).

SMILES strings stand for the structures. pIC50: −log10 of the molar value. Where only a bound is given, the exact number is not on record here.

Experiment [1] deals with T1, PIP4K2B (Homo sapiens, UniProt P78356).
T1 construct: made in house; host or cells: E. coli
T1 sequence (P78356 1-416): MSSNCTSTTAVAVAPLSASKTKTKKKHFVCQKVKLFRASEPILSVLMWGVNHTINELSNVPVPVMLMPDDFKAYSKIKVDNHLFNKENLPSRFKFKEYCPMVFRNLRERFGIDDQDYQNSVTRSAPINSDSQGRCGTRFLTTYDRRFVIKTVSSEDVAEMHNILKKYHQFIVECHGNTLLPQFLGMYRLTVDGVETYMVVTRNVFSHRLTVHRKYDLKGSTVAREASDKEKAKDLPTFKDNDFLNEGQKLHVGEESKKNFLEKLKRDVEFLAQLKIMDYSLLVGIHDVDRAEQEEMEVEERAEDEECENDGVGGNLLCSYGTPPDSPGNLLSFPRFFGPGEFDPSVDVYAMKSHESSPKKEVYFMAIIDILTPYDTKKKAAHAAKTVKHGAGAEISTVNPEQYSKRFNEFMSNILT
In words: Trans-FI P kinase assay PIP4K2B (Table 4). Conditions: compounds listed under IC50 bins; read-out: Trans-FI P kinase assays: PIP4K2B IC50. The format is biochemical. The essentials: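 Transcreener FI detection (Ex 584/Em 623) of GDP, converted via calibration curve, gives IC50 from residual activity versus log concentration (highest 4.8 μM). Reaction: 80 μM PI5P plus DOPE carrier, 100 μM GTP, 5 nM GST-tagged enzyme, pH 7.3 HEPES with MgCl2 and 5% DMSO, 2 h after 1 h enzyme-compound preincubation at 27° C.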

The target in experiment [2] is T2, PIP4K2A (Homo sapiens, UniProt P48426).
T2 sequence (P48426 1-406): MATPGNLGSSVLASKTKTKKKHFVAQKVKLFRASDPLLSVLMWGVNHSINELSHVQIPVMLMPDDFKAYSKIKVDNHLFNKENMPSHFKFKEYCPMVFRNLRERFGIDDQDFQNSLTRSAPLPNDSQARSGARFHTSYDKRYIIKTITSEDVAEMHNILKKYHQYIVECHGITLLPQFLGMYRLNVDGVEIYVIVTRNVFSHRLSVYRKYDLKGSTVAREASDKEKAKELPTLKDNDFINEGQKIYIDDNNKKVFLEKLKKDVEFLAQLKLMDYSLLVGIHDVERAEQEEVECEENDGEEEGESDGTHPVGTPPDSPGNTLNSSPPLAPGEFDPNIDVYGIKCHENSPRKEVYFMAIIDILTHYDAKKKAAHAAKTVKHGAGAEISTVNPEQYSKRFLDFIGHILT
In words: ADP-glo kinase assay PIP4K 2A (Table 3). The format is biochemical. Also on record: made in house; host or cells: E. coli. To be noted: compounds listed under IC50 bins. How it is done:
Dilution series of the compounds were prepared in DMSO at 100 times the final assay concentration (n1=n0/3 in 10 points). The compounds were further diluted to three times the assay concentration in assay buffer (20 mM MOPS pH 7.2, 25 mM magnesium chloride, 0.005% Tween 20). 6 μL of the diluted compounds were added to a 384 well assay plate followed by 9 μL of a mix consisting of 4 nM PIP4K2A (full length protein, SignalChem) and 100 μM PI(5)P diC8 (Tebu-Bio). Enzyme and compounds were pre-incubated at room temperature for 15 minutes.
Then 3 μL of a solution containing 60 μM ATP (Promega) in assay buffer was added to the wells containing compound and enzyme and mixing was performed by pipetting several times. The reaction was incubated at room temperature for 1 h. Then 18 μL of ADP-Glo™ Reagent (Promega) was added to stop the kinase reaction and deplete the unconsumed ATP, mixing was performed by pipetting several times. The plate was incubated at room temperature for 40 minutes before addition of 36 μL of Kinase Detection Reagent (Promega) to convert ADP to ATP and introduce luciferase and luciferin to detect ATP. The reaction was incubated at room temperature for 40 minutes before the luminescence was measured in a in a Victor 3V 1420 multilabel counter (Perkin Elmer).
Percent inhibition of the compounds as compared to dimethyl sulfoxide treated control samples was calculated. Compound concentration versus percent inhibition were fitted to generate IC50 values. […]
(In general: ADP-Glo turns the ADP formed in a reaction into a luminescent signal.)

As a reminder, the pIC50 is the IC50 on a negative log10 scale, so that one unit is a factor of ten. Consider `CC(C)c1cc(Nc2cnc3c(c2)N2C(=O)CC[C@H]2CO3)ncc1-c1ccc(N2CCCC2=O)c(F)c1` [Example 181, (S)-2-((5-(3-fluoro-4-(2-oxopyrrolidin-1-yl)phenyl)-4-isopropylpyridin-2-yl)amino)-6,6a,7,8-tetrahydro-9H-pyrido[2,3-b]pyrrolo[1,2-d][1,4]oxazin-9-one], for which the results for the pIC50 in experiment [1] and in experiment [2] were 7.00 to 8.00 and 8.00 to 9.00, respectively.
For `O=C1CCCN1c1ccc(-c2cnc(Nc3cnc4c(c3)N3C(=O)CC[C@H]3CO4)cc2C2CC2)cc1F` [Example 182, (S)-2-((4-cyclopropyl-5-(3-fluoro-4-(2-oxopyrrolidin-1-yl)phenyl)pyridin-2-yl)amino)-6,6a,7,8-tetrahydro-9H-pyrido[2,3-b]pyrrolo[1,2-d][1,4]oxazin-9-one], the pIC50 in experiment [1] is 7.00 to 8.00; in experiment [2] it was 8.00 to 9.00.
In the same order, the values of `O=C1CCCN1c1ccc(-c2cnc(Nc3cnc4c(c3)N3C(=O)CC[C@H]3CO4)nc2)cc1F` [Example 187, (S)-2-((5-(3-fluoro-4-(2-oxopyrrolidin-1-yl)phenyl)pyrimidin-2-yl)amino)-6,6a,7,8-tetrahydro-9H-pyrido[2,3-b]pyrrolo[1,2-d][1,4]oxazin-9-one] are 7.00 to 8.00 and 7.00 to 8.00.
For `Cc1cc(-c2ccc(N3CCCC3=O)cc2)cnc1Nc1cnc2c(c1)N1C(=O)CC[C@H]1CO2` [Example 194, (S)-2-((3-methyl-5-(4-(2-oxopyrrolidin-1-yl)phenyl)pyridin-2-yl)amino)-6,6a,7,8-tetrahydro-9H-pyrido[2,3-b]pyrrolo[1,2-d][1,4]oxazin-9-one], in that order: less than 6.00 and less than 6.00.
On to `COc1nc(Nc2cnc3c(c2)N2C(=O)CC[C@H]2CO3)ncc1-c1ccc(N2CCCC2=O)cc1` [Example 195, (S)-2-((4-methoxy-5-(4-(2-oxopyrrolidin-1-yl)phenyl)pyrimidin-2-yl)amino)-6,6a,7,8-tetrahydro-9H-pyrido[2,3-b]pyrrolo[1,2-d][1,4]oxazin-9-one], for which the pIC50 in experiment [1] was 8.00 to 9.00; in experiment [2], not below 9.00.
Take `Cc1nc(Nc2cnc3c(c2)N2C(=O)CC[C@H]2CO3)ncc1-c1ccc(N2CCCC2=O)cc1` [Example 196, (S)-2-((4-methyl-5-(4-(2-oxopyrrolidin-1-yl)phenyl)pyrimidin-2-yl)amino)-6,6a,7,8-tetrahydro-9H-pyrido[2,3-b]pyrrolo[1,2-d][1,4]oxazin-9-one]: the pIC50 was 8.00 to 9.00 in experiment [1] and 7.00 to 8.00 in experiment [2].
For `Cc1cc(N2CCCC2=O)ccc1-c1cnc(Nc2cnc3c(c2)N2C(=O)CC[C@H]2CO3)nc1` [Example 198, (S)-2-((5-(2-methyl-4-(2-oxopyrrolidin-1-yl)phenyl)pyrimidin-2-yl)amino)-6,6a,7,8-tetrahydro-9H-pyrido[2,3-b]pyrrolo[1,2-d][1,4]oxazin-9-one], in that order: 8.00 to 9.00 and 8.00 to 9.00.
In the same order, the values of `Nc1nc(Nc2cnc3c(c2)N2C(=O)CC[C@H]2CO3)ncc1-c1ccc(N2CCCC2=O)cc1` [Example 199, (S)-2-((4-amino-5-(4-(2-oxopyrrolidin-1-yl)phenyl)pyrimidin-2-yl)amino)-6,6a,7,8-tetrahydro-9H-pyrido[2,3-b]pyrrolo[1,2-d][1,4]oxazin-9-one] are 8.00 to 9.00 and 8.00 to 9.00.
In the same order, the values of `COc1nc(Nc2cnc3c(c2)N2C(=O)C4(CC4)C[C@H]2CO3)ncc1-c1ccc(N2CCCC2=O)cc1` [Example 200, (S)-2′-((4-methoxy-5-(4-(2-oxopyrrolidin-1-yl)phenyl)pyrimidin-2-yl)amino)-6a′,7′-dihydro-6′H,9′H-spiro[cyclopropane-1,8′-pyrido[2,3-b]pyrrolo[1,2-d][1,4]oxazin]-9′-one] are 8.00 to 9.00 and not below 9.00.
For `Cc1nc(Nc2cnc3c(c2)N2C(=O)C4(CC4)C[C@H]2CO3)ncc1-c1ccc(N2CCCC2=O)cc1` [Example 201, (S)-2′-((4-methyl-5-(4-(2-oxopyrrolidin-1-yl)phenyl)pyrimidin-2-yl)amino)-6a′,7′-dihydro-6′H,9′H-spiro[cyclopropane-1,8′-pyrido[2,3-b]pyrrolo[1,2-d][1,4]oxazin]-9′-one], the pIC50 in experiment [1] and in experiment [2] was 8.00 to 9.00 each time.
On to `Cc1cc(N2CCCC2=O)ccc1-c1cnc(Nc2cnc3c(c2)N2C(=O)C4(CC4)C[C@H]2CO3)nc1` [Example 203, (S)-2′-((5-(2-methyl-4-(2-oxopyrrolidin-1-yl)phenyl)pyrimidin-2-yl)amino)-6a′,7′-dihydro-6′H,9′H-spiro[cyclopropane-1,8′-pyrido[2,3-b]pyrrolo[1,2-d][1,4]oxazin]-9′-one], for which the pIC50 in experiment [1] and in experiment [2] was 8.00 to 9.00 each time.
For `Nc1nc(Nc2cnc3c(c2)N2C(=O)C4(CC4)C[C@H]2CO3)ncc1-c1ccc(N2CCCC2=O)cc1` [Example 204, (S)-2′-((4-amino-5-(4-(2-oxopyrrolidin-1-yl)phenyl)pyrimidin-2-yl)amino)-6a′,7′-dihydro-6′H,9′H-spiro[cyclopropane-1,8′-pyrido[2,3-b]pyrrolo[1,2-d][1,4]oxazin]-9′-one], the pIC50 in experiment [1] and in experiment [2] was 8.00 to 9.00 in each case.
Regarding `O=C1CCCN1c1ccc(-c2cnc(Nc3cnc4c(c3)N3C(=O)C5(CC5)C[C@H]3CO4)nc2)cc1` [Example 205, (S)-2′-((5-(4-(2-oxopyrrolidin-1-yl)phenyl)pyrimidin-2-yl)amino)-6a′,7′-dihydro-6′H,9′H-spiro[cyclopropane-1,8′-pyrido[2,3-b]pyrrolo[1,2-d][1,4]oxazin]-9′-one], the pIC50 in experiment [1] and in experiment [2] was 8.00 to 9.00 each time.
Consider `Cc1cc(Nc2cnc3c(c2)N2C(=O)C4(CC4)C[C@H]2CO3)ncc1-c1ccc(N2CCCC2=O)cc1` [Example 206, (S)-2′-((4-methyl-5-(4-(2-oxopyrrolidin-1-yl)phenyl)pyridin-2-yl)amino)-6a′,7′-dihydro-6′H,9′H-spiro[cyclopropane-1,8′-pyrido[2,3-b]pyrrolo[1,2-d][1,4]oxazin]-9′-one], for which the pIC50 in experiment [1] was 7.00 to 8.00; in experiment [2] it was 8.00 to 9.00.
Turning to `COCc1cc(Nc2cnc3c(c2)N2C(=O)C4(CC4)C[C@H]2CO3)ncc1-c1ccc(N2CCCC2=O)cc1` [Example 207, (S)-2′-((4-(methoxymethyl)-5-(4-(2-oxopyrrolidin-1-yl)phenyl)pyridin-2-yl)amino)-6a′,7′-dihydro-6′H,9′H-spiro[cyclopropane-1,8′-pyrido[2,3-b]pyrrolo[1,2-d][1,4]oxazin]-9′-one], the pIC50 in experiment [1] and in experiment [2] was 8.00 to 9.00 each time.
Take `Cc1cc(N2CCCC2=O)ccc1-c1ccc(Nc2cnc3c(c2)N2C(=O)C4(CC4)C[C@H]2CO3)nc1` [Example 208, (S)-2′-((5-(2-methyl-4-(2-oxopyrrolidin-1-yl)phenyl)pyridin-2-yl)amino)-6a′,7′-dihydro-6′H,9′H-spiro[cyclopropane-1,8′-pyrido[2,3-b]pyrrolo[1,2-d][1,4]oxazin]-9′-one]: the pIC50 in experiment [1] and in experiment [2] was 7.00 to 8.00 throughout.
Turning to `CC(C)c1cc(Nc2cnc3c(c2)N2C(=O)C4(CC4)C[C@H]2CO3)ncc1-c1ccc(N2CCCC2=O)cc1` [Example 210, (S)-2′-((4-isopropyl-5-(4-(2-oxopyrrolidin-1-yl)phenyl)pyridin-2-yl)amino)-6a′,7′-dihydro-6′H,9′H-spiro[cyclopropane-1,8′-pyrido[2,3-b]pyrrolo[1,2-d][1,4]oxazin]-9′-one], the pIC50 in experiment [1] is 8.00 to 9.00; in experiment [2] it was not below 9.00.
